Data as given in patent US20260015436A1, “ANTIBODIES FOR CHELATED RADIONUCLIDES” (Hoffmann-La Roche Inc., priority 2018, published 2026).

Assays:
BxPC3 tumors = assay: Protocol 103: efficacy of CEA-PRIT, s.c. BxPC3 tumors; assay type: in vivo, SCID mice; conditions: result in words
Method: Step 1: Administration of a BsAb (i.v. or i.p.): The BsAb used in the studies binds Pb-DOTAM with high affinity and targets the tumor e.g. via CEA.
Step 2: Administration of CA (i.v. or i.p.): To allow efficient tumor accumulation of ^212Pb-DOTAM, circulating BsAb needs to be neutralized in the blood using a CA that blocks ^212Pb-DOTAM binding to unbound BsAb, without penetrating into the tumor and consequently blocking the pretargeted sites. The CA is administered once the BsAb has accumulated to a sufficient degree in the tumor, generally after 4-10 days. […]
The body weight (BW) of the study animals was measured at least 3 times per week, with additional measurements as needed depending on the health status. […]
where d indicates treatment day and 0 the baseline value. […] Tumor regression (TR) was calculated according to: […]
This study assessed the efficacy of CEA-PRIT using the CEA-DOTAM BsAb for treatment of s.c. BxPC3 tumors in mice. The therapy was administered either as a single treatment with 10 or 30 μCi of ^212Pb-DOTAM, or in three repeated cycles for each of the two radioactivity levels. […] Biodistributions were performed after the first and second cycle to confirm ^212Pb-DOTAM targeting and clearance, and the treatment efficacy was assessed in terms of TGI, TR, and survival. […]

WSU-DLCL2 tumors = assay: Protocol 162: CD20-PRIT efficacy; assay type: in vivo, SCID mice; conditions: multiple injections of 20 μCi (PRIT); result in words
Method: The aim of this study was to show proof-of-concept of the treatment regimen developed for CEA-PRIT directed against an alternative target: cluster of differentiation 20 (CD20). The therapeutic efficacy was evaluated after 3 cycles of CD20-PRIT in mice bearing subcutaneous WSU-DLCL2 tumors. Comparisons were also made with: 1-step CD20-RIT, using BsAbs that were pre-incubated with ^212Pb-DOTAM before injection; with rituximab, a type I monoclonal antibody directed against CD20 and a reference in treatment of CD20+ diseases; and with GA101, a type II monoclonal antibody also directed against CD20.
Animals were treated according to the experimental schedule illustrated in FIG. 59. Solid WSU-DLCL2 xenografts were established in SCID mice aged 8 weeks on study day 0 by subcutaneous injection of 1.5×10^5 cells into the right flank. […]
Mice in groups H, I, and L were sacrificed and necropsied for biodistribution purposes 24 hours after their first and only injection of ^212Pb-DOTAM or ^212Pb-DOTAM-BsAb; groups J and K were sacrificed and necropsied 24 hours after their second and third ^212Pb-DOTAM injection, respectively. […] Collected samples were weighed and then measured for radioactivity using a 2470 WIZARD^2 automatic gamma counter (PerkinElmer), and the percent injected dose per gram of tissue (% ID/g) subsequently calculated, including corrections for decay and background. […]

For `NC(=O)CN1CCN(CC(N)=O)CCN(CC(N)=O)CCN(CC(N)=O)CC1.[212Pb+2]` [^212Pb-DOTAM], the “radiation-induced toxicity / tolerability” value (BxPC3 tumors; 10 μCi) was “safe radioactivity level”, the “radiation-induced toxicity / tolerability” value (BxPC3 tumors; 30 μCi) was “approaching the maximum tolerated activity” and the BW development (WSU-DLCL2 tumors) was “well tolerated”.
